# Assays:
# Test in all cases: KINOMEscan competition binding
# Details in all cases: compound 10.0 µM
# CAMK1G (human) = CAMK1G (human) (UniProt Q96NX5)
# CAMK2G (human) = CAMK2G (human) (UniProt Q13555)
# CDK3 (human) = CDK3 (human) (UniProt Q00526)
# CHEK1 (human) = CHEK1 (human) (UniProt O14757)
# CIT (human) = CIT (human) (UniProt O14578)
# CSNK1D (human) = CSNK1D (human) (UniProt P48730)
# EPHB3 (human) = EPHB3 (human) (UniProt P54753)
# FLT4 (human) = FLT4 (human) (UniProt P35916)
# GSK3A (human) = GSK3A (human) (UniProt P49840)
# Sequence of GSK3A (human) (P49840 whole entry, looked up): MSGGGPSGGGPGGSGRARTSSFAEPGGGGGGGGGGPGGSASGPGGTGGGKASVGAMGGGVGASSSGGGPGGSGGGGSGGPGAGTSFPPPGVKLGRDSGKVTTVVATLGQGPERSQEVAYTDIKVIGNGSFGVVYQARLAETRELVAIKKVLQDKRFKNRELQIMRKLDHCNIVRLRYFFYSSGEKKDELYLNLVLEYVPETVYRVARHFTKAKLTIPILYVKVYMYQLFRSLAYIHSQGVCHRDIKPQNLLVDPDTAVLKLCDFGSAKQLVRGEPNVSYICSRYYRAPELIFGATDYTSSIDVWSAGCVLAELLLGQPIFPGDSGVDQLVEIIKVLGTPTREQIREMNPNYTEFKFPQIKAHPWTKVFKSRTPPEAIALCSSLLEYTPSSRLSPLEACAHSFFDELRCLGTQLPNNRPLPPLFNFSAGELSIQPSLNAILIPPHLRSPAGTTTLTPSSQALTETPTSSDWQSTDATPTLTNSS
# HCK (human) = HCK (human) (UniProt P08631)
# HIPK4 (human) = HIPK4 (human) (UniProt Q8NE63)
# IRAK1 (human) = IRAK1 (human) (UniProt P51617)
# LATS2 (human) = LATS2 (human) (UniProt Q9NRM7)
# LIMK1 (human) = LIMK1 (human) (UniProt P53667)
# LYN (human) = LYN (human) (UniProt P07948)
# MAP3K5 (human) = MAP3K5 (human) (UniProt Q99683)
# Sequence of MAP3K5 (human) (Q99683 whole entry, looked up): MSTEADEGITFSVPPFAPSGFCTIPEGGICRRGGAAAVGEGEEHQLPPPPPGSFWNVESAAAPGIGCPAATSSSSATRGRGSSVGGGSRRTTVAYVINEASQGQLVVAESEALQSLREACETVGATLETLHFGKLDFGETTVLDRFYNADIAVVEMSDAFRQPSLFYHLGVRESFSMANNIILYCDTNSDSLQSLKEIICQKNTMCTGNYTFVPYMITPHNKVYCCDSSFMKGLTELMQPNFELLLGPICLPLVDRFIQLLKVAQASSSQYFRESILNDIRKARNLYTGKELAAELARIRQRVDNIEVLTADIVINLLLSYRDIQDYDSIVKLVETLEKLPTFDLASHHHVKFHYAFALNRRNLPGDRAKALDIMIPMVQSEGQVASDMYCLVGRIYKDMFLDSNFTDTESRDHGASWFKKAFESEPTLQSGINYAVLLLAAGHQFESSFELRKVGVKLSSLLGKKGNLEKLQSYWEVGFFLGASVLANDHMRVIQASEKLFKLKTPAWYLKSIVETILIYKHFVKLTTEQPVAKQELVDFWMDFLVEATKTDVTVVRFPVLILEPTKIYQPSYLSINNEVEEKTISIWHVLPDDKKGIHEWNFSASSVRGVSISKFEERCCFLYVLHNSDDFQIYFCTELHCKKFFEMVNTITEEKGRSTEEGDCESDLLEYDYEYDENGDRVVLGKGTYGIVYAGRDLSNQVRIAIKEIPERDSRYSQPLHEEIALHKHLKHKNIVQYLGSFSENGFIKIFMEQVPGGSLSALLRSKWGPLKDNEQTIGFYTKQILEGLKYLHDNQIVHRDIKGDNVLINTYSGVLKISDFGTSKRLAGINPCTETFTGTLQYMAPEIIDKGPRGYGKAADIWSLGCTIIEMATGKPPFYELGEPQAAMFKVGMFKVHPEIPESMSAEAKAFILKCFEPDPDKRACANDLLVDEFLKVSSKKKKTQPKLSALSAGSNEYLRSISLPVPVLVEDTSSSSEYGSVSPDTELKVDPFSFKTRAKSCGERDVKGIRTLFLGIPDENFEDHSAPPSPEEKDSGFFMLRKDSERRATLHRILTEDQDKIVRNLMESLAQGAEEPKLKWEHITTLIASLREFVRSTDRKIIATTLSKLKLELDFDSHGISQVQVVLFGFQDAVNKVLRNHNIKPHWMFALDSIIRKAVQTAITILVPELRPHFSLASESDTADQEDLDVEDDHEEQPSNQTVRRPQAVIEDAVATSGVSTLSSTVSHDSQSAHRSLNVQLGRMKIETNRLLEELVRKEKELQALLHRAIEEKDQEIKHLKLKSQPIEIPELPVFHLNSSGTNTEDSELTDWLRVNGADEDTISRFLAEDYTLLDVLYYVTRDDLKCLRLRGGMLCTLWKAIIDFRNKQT
# MAP3K6 (human) = MAP3K6 (human) (UniProt O95382)
# MAPK7 (human) = MAPK7 (human) (UniProt Q13164)
# Sequence of MAPK7 (human) (Q13164 whole entry, looked up): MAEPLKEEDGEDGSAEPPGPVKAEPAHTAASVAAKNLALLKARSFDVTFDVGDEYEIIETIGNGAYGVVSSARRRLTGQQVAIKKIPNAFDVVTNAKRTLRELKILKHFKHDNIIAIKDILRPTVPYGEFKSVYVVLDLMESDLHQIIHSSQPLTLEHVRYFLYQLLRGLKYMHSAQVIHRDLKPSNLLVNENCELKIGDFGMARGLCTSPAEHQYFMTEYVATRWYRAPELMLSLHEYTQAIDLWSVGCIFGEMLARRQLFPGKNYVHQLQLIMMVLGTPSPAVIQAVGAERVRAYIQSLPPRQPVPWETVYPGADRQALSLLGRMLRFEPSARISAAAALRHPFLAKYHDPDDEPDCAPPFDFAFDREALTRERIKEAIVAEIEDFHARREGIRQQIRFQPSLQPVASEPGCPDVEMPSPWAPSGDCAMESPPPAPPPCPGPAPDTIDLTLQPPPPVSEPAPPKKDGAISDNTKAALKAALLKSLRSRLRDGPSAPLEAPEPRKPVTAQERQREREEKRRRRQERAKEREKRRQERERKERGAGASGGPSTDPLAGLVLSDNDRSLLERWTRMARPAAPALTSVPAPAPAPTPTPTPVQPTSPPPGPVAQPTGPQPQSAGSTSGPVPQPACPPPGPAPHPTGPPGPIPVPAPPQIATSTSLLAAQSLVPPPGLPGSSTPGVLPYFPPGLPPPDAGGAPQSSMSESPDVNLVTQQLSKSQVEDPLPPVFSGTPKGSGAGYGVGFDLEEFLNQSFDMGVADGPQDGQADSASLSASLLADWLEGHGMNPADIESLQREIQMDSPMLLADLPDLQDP
# MET (human) = MET (human) (UniProt P08581)
# [1] = test system: MET (human), P08581 [M1250T]
# MKNK2 (human) = MKNK2 (human) (UniProt Q9HBH9)
# MYLK (human) = MYLK (human) (UniProt Q15746)
# MYLK2 (human) = MYLK2 (human) (UniProt Q9H1R3)
# PDGFRA (human) = PDGFRA (human) (UniProt P16234)
# PKMYT1 (human) = PKMYT1 (human) (UniProt Q99640)
# PKN2 (human) = PKN2 (human) (UniProt Q16513)
# PLK1 (human) = PLK1 (human) (UniProt P53350)
# PLK3 (human) = PLK3 (human) (UniProt Q9H4B4)
# PRKG2 (human) = PRKG2 (human) (UniProt Q13237)
# RET (human) = RET (human) (UniProt P07949)
# ROS1 (human) = ROS1 (human) (UniProt P08922)
# RPS6KA5 KD2 (human) = RPS6KA5 KD2 (human) (UniProt O75582)
# STK32B (human) = STK32B (human) (UniProt Q9NY57)
# Sequence of STK32B (human) (Q9NY57 whole entry, looked up): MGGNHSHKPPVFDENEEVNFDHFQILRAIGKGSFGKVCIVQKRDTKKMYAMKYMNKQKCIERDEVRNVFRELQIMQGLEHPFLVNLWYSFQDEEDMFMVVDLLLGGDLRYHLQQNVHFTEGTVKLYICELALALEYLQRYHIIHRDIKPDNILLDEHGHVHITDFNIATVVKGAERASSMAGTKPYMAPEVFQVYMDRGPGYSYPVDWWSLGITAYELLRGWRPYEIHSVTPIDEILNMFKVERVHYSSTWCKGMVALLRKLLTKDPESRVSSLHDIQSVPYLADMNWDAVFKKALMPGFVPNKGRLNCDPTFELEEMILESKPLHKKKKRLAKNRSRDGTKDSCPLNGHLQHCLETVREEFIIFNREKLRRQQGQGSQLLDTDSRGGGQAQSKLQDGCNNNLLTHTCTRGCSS
# ULK3 (human) = ULK3 (human) (UniProt Q6PHR2)
# Sequence of CHEK1 (human) (O14757 whole entry, looked up): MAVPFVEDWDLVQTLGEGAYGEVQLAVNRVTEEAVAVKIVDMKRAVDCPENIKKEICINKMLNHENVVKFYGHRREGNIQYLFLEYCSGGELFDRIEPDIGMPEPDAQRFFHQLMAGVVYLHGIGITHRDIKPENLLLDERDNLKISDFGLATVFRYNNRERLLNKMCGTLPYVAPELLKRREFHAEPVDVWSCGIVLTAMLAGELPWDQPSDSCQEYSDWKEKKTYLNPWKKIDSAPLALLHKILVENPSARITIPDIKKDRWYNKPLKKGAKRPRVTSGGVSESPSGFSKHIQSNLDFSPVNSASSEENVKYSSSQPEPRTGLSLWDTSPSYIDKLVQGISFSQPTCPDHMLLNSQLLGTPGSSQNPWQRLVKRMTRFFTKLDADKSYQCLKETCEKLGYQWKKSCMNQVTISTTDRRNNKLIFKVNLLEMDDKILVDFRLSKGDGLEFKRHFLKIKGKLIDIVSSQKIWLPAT
# Sequence of EPHB3 (human) (P54753 whole entry, looked up): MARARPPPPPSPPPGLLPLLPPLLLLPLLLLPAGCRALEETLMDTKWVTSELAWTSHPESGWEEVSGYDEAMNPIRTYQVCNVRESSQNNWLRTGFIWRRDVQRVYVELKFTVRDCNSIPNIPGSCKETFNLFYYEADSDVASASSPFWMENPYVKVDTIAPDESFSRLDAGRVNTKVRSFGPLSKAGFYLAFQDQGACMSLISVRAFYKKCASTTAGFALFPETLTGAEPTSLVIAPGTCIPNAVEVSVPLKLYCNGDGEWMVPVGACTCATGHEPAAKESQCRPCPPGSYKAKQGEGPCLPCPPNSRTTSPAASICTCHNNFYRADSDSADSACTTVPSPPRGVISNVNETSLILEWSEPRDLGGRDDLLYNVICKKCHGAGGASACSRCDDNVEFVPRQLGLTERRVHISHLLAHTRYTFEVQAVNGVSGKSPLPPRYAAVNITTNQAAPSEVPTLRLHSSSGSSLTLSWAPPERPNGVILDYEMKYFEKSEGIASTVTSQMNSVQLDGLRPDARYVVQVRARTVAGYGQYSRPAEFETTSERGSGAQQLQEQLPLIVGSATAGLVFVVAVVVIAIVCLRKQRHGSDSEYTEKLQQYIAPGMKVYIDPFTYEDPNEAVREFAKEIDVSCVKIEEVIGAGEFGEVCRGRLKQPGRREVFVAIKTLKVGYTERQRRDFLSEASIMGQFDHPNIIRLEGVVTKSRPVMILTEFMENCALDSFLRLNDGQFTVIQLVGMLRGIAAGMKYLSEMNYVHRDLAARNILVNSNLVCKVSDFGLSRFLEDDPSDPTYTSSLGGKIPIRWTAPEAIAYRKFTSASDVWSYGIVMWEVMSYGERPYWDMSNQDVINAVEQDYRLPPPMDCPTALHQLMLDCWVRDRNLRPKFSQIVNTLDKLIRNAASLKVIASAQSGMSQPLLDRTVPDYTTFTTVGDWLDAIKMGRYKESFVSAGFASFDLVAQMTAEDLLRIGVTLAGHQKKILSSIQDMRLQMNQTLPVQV
# Sequence of CSNK1D (human) (P48730 whole entry, looked up): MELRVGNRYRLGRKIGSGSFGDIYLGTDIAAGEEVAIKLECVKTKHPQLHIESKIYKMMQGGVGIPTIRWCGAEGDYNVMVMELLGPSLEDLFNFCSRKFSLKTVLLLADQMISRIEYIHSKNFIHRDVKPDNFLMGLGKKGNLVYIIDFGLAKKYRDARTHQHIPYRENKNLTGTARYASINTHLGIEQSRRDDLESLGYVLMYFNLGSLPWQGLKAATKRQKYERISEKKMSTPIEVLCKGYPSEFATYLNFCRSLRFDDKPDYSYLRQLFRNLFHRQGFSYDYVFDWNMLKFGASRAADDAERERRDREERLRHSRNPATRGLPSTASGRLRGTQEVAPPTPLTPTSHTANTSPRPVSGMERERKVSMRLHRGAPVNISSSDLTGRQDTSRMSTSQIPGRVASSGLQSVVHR
SMILES,"kinase still bound, per cent of control (CAMK1G (human))","kinase still bound, per cent of control (CAMK2G (human))","kinase still bound, per cent of control (CDK3 (human))","kinase still bound, per cent of control (CHEK1 (human))","kinase still bound, per cent of control (CIT (human))","kinase still bound, per cent of control (CSNK1D (human))","kinase still bound, per cent of control (EPHB3 (human))","kinase still bound, per cent of control (FLT4 (human))","kinase still bound, per cent of control (GSK3A (human))","kinase still bound, per cent of control (HCK (human))","kinase still bound, per cent of control (LATS2 (human))","kinase still bound, per cent of control (LIMK1 (human))","kinase still bound, per cent of control (LYN (human))","kinase still bound, per cent of control (MAP3K5 (human))","kinase still bound, per cent of control (MAPK7 (human))","kinase still bound, per cent of control (MET (human))","kinase still bound, per cent of control (MKNK2 (human))","kinase still bound, per cent of control (MYLK (human))","kinase still bound, per cent of control (MYLK2 (human))","kinase still bound, per cent of control (PDGFRA (human))",also measured
Cc1cn(-c2cc(C(=O)Nc3ccc(C)c(NC(=O)c4ccno4)c3)cc(C(F)(F)F)c2)cn1,100%,100%,100%,100%,31%,100%,27%,100%,100%,1.4%,100%,100%,4.8%,100%,100%,100%,100%,100%,100%,1.2%,"kinase still bound, per cent of control (HIPK4 (human)): 100%; kinase still bound, per cent of control (IRAK1 (human)): 100%; kinase still bound, per cent of control (MAP3K6 (human)): 100%; kinase still bound, per cent of control [1]: 100%; kinase still bound, per cent of control (PKMYT1 (human)): 100%; kinase still bound, per cent of control (PKN2 (human)): 100%; kinase still bound, per cent of control (PLK1 (human)): 100%; kinase still bound, per cent of control (PLK3 (human)): 100%; kinase still bound, per cent of control (PRKG2 (human)): 100%; kinase still bound, per cent of control (RET (human)): 100%; kinase still bound, per cent of control (ROS1 (human)): 100%; kinase still bound, per cent of control (RPS6KA5 KD2 (human)): 100%; kinase still bound, per cent of control (STK32B (human)): 100%; kinase still bound, per cent of control (ULK3 (human)): 100%"
CCOc1cc(N2CCC(O)CC2)ccc1Nc1ncc2c(n1)N(C)c1ccccc1C(=O)N2C,100%,100%,100%,100%,100%,100%,100%,100%,100%,100%,100%,100%,100%,100%,0%,100%,100%,100%,100%,100%,"kinase still bound, per cent of control (HIPK4 (human)): 100%; kinase still bound, per cent of control (IRAK1 (human)): 100%; kinase still bound, per cent of control (MAP3K6 (human)): 100%; kinase still bound, per cent of control [1]: 100%; kinase still bound, per cent of control (PKMYT1 (human)): 100%; kinase still bound, per cent of control (PKN2 (human)): 100%; kinase still bound, per cent of control (PLK1 (human)): 100%; kinase still bound, per cent of control (PLK3 (human)): 100%; kinase still bound, per cent of control (PRKG2 (human)): 100%; kinase still bound, per cent of control (RET (human)): 100%; kinase still bound, per cent of control (ROS1 (human)): 15%; kinase still bound, per cent of control (RPS6KA5 KD2 (human)): 100%; kinase still bound, per cent of control (STK32B (human)): 100%; kinase still bound, per cent of control (ULK3 (human)): 100%"
COc1cc(N2CCC(C(N)=O)CC2)ccc1Nc1nc(N)c(Cl)c(Nc2ccccc2S(=O)(=O)C(C)C)n1,100%,100%,100%,100%,100%,100%,100%,100%,100%,24%,100%,100%,100%,100%,100%,100%,14%,5%,100%,100%,"kinase still bound, per cent of control (PKMYT1 (human)): 100%; kinase still bound, per cent of control (PKN2 (human)): 100%; kinase still bound, per cent of control (PLK1 (human)): 21%; kinase still bound, per cent of control (PLK3 (human)): 100%; kinase still bound, per cent of control (PRKG2 (human)): 100%; kinase still bound, per cent of control (RET (human)): 100%; kinase still bound, per cent of control (ROS1 (human)): 3.2%; kinase still bound, per cent of control (RPS6KA5 KD2 (human)): 100%; kinase still bound, per cent of control (STK32B (human)): 3.7%; kinase still bound, per cent of control (ULK3 (human)): 100%"
